We go through one molecule from publication PMC8449129, “Single tracer-based protocol for broad-spectrum kinase profiling in live cells with NanoBRET” (STAR Protocols, 2021).

Common to all, as to assay: cell-based
What all share (parameters): NanoBRET live-cell target engagement; % occupancy from displacement of tracer K10 on NanoLuc-kinase fusions, mean n=3
What all share (settings): HEK293, read-out: % inhibition

The target of one assay is ABL2 (Homo sapiens, UniProt P42684). A digest of the protocol: (§1)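 Live-cell NanoBRET target engagement: cells expressing kinase–NanoLuc fusion with tracer treated with compound 2 h at 37 °C, 5% CO2. BRET read from donor (450 nm) and acceptor (610/630 nm) emission with 20 μM extracellular NanoLuc inhibitor; % occupancy calculated relative to tracer+DMSO and zero-BRET controls.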

For another assay, the target named is CDK14 (Homo sapiens, UniProt O94921). Put shortly: as §1
The next assay has as its target CDK6 (Homo sapiens, UniProt Q00534). A digest of the protocol: as §1
A further assay has as its target CDK7 (Homo sapiens, UniProt P50613). Put shortly: as §1
In the next assay the target is CHEK2 (Homo sapiens, UniProt O96017). Put shortly:
as §1

A further assay concerns the target DAPK2 (Homo sapiens, UniProt Q9UIK4). Put shortly:
as §1

In another assay the target is FYN (Homo sapiens, UniProt P06241). A digest of the protocol: as §1
The target in another assay is INSR (Homo sapiens, UniProt P06213). A digest of the protocol:
as §1

The target of another assay is LIMK1 (Homo sapiens, UniProt P53667). Put shortly: as §1
The next assay has as its target MAP3K10 (Homo sapiens, UniProt Q02779). Put shortly: as §1
In another assay the target is MAPK11 (Homo sapiens, UniProt Q15759). A digest of the protocol:
as §1

For another assay, the target named is MAPK6 (Homo sapiens, UniProt Q16659). A digest of the protocol: as §1
MAPK6, sequence (Q16659 whole entry): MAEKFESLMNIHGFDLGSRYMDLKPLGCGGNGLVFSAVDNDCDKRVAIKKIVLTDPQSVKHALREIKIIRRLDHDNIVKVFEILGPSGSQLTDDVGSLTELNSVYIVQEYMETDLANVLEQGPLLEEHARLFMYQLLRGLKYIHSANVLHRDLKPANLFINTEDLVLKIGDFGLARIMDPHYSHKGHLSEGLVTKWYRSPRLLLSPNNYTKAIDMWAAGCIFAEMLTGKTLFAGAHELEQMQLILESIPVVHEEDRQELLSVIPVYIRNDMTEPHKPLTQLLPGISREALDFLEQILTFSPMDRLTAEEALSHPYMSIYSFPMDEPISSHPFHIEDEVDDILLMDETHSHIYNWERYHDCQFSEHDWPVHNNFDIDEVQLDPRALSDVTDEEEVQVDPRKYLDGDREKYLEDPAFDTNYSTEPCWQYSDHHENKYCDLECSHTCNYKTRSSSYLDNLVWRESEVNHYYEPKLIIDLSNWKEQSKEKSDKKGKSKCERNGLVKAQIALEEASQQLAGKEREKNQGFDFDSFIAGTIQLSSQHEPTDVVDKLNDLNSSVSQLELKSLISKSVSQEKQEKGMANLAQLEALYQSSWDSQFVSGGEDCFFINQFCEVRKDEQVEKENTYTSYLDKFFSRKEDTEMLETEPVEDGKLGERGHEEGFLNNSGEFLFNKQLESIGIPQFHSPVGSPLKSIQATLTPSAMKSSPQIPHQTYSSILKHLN
For a further assay, the target named is MAPK9 (Homo sapiens, UniProt P45984). Put shortly:
as §1

The next assay has as its target NEK1 (Homo sapiens, UniProt Q96PY6). A digest of the protocol:
as §1

Another assay concerns the target NEK5 (Homo sapiens, UniProt Q6P3R8). Put shortly: as §1
The next assay has as its target PRKCE (Homo sapiens, UniProt Q02156). A digest of the protocol: as §1
The next assay deals with RPS6KA3 (Homo sapiens, UniProt P51812). Put shortly:
as §1

For the next assay, the target named is STK38L (Homo sapiens, UniProt Q9Y2H1). Put shortly: as §1
STK38L, sequence (Q9Y2H1 whole entry): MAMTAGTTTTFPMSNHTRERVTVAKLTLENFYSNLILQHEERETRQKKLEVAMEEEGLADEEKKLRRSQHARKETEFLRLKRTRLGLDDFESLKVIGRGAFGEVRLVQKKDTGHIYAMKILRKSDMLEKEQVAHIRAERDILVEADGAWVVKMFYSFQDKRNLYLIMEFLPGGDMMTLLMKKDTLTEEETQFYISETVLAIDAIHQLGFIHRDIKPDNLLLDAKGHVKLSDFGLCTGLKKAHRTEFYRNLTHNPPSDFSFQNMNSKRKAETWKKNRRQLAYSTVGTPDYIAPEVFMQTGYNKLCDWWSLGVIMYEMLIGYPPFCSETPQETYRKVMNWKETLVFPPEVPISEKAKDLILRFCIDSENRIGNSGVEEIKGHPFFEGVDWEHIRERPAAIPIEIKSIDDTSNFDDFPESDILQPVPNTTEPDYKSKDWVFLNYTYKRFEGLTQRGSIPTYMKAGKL

NEK1, sequence (Q96PY6 whole entry): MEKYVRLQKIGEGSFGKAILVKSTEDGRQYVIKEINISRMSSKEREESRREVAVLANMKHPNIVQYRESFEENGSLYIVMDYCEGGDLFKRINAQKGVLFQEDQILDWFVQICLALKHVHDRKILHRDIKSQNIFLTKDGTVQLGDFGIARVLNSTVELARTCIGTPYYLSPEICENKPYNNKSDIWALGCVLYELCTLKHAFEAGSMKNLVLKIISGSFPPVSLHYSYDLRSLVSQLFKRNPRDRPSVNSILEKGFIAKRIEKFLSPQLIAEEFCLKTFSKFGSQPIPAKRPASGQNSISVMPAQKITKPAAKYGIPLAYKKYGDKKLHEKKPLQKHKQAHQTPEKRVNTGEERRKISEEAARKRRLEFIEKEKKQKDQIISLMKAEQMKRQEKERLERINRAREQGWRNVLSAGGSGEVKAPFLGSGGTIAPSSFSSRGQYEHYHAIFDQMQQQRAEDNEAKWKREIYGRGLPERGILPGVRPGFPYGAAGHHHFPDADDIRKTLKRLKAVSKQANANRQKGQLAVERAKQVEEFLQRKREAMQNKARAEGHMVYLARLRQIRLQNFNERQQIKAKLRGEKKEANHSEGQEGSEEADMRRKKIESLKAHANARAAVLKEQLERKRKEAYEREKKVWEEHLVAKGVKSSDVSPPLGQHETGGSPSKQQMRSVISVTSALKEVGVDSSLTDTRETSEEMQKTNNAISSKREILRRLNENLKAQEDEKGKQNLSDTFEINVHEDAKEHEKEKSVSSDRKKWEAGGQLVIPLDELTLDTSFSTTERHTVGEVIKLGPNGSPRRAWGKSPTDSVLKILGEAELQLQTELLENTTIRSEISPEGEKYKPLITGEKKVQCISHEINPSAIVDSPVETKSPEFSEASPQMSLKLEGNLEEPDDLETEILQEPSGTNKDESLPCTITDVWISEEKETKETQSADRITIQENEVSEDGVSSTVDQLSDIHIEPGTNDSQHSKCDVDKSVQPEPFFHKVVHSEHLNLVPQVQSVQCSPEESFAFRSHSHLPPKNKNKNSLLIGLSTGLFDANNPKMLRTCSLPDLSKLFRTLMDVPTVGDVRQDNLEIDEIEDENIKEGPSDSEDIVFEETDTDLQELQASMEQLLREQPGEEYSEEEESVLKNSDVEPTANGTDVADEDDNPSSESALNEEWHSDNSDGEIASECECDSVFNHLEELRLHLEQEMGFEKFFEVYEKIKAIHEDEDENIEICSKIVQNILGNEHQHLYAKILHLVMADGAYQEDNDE
RPS6KA3, sequence (P51812 whole entry): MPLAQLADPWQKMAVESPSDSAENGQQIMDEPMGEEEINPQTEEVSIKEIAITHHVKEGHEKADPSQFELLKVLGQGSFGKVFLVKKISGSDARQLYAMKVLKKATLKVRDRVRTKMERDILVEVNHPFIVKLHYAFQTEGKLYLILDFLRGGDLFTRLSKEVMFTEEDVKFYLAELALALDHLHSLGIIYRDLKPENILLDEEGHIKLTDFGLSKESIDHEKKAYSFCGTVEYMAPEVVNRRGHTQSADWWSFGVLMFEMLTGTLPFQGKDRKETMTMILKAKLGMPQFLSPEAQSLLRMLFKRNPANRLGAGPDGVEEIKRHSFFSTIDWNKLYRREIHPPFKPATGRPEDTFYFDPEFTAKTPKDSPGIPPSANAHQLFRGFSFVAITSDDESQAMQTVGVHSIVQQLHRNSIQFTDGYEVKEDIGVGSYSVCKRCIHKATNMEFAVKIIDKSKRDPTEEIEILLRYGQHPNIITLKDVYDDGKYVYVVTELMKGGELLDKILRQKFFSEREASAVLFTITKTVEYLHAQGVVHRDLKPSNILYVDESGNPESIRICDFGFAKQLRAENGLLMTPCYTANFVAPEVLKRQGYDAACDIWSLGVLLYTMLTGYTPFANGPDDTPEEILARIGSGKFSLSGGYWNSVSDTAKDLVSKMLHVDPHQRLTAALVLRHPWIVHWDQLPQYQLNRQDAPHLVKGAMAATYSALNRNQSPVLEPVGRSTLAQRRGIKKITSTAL
CDK7, sequence (P50613 whole entry): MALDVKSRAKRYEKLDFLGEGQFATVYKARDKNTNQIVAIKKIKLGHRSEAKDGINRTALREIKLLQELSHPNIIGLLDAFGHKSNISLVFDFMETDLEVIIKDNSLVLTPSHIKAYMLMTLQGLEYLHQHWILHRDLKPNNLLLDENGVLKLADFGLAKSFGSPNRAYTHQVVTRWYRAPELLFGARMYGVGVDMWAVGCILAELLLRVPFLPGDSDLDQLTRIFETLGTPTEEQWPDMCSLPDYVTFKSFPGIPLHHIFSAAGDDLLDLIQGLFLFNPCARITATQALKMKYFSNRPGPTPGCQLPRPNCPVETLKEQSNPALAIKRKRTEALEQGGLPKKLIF
DAPK2, sequence (Q9UIK4 whole entry): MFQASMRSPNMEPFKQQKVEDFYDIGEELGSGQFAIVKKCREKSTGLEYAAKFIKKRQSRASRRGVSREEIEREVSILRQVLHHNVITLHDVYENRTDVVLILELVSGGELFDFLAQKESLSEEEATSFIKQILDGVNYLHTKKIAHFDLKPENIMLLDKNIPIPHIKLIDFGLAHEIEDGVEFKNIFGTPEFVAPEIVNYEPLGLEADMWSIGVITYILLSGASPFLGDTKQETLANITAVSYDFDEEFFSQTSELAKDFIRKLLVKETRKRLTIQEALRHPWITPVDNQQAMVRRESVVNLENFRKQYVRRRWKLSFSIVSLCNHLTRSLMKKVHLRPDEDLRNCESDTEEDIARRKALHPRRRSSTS
PRKCE, sequence (Q02156 whole entry): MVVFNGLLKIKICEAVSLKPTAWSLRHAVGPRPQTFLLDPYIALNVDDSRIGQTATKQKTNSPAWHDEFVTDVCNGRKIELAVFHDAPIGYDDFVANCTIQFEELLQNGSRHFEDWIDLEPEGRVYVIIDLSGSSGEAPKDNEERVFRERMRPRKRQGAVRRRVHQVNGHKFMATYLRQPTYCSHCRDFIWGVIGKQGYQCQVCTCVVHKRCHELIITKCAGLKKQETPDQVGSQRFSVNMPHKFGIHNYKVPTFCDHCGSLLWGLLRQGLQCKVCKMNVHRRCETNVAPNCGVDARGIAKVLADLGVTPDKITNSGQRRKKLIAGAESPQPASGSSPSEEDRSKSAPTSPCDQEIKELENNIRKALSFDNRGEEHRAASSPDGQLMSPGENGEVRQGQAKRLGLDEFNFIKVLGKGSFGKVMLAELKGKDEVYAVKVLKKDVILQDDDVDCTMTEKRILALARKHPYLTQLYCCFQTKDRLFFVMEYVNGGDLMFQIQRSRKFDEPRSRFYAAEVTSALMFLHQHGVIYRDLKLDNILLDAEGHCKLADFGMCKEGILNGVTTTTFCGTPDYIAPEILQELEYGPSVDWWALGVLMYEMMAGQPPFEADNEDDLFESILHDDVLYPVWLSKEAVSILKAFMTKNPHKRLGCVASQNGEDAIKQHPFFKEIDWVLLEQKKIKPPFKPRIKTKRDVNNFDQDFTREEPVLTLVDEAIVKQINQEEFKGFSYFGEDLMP
CDK6, sequence (Q00534 whole entry): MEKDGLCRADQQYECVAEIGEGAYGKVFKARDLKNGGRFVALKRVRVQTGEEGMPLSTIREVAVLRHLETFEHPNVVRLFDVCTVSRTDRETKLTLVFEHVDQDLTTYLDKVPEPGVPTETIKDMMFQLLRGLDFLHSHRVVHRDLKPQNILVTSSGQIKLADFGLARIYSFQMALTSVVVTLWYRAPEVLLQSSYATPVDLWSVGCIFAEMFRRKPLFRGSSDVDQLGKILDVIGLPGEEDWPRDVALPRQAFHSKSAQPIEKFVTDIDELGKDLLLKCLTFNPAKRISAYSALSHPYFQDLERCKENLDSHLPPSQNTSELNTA

For the molecule `C[C@@H](Oc1cc(-c2cnn(C3CCNCC3)c2)cnc1N)c1c(Cl)ccc(F)c1Cl` [crizotinib], the inhibition at 1 µM on ABL2 stood at 43%; on CDK14, 0%; on CDK6 it was 0%; at CDK7 it was 32%; at CHEK2, 0%; at DAPK2, 3%. In addition, the inhibition at 1 µM is -2% on FYN; 20% at INSR; 29% on LIMK1; -1% at MAP3K10; 0% at MAPK11; 2% on MAPK6. For the same molecule, the inhibition at 1 µM on MAPK9 is -11%; at NEK1, 3%; at NEK5 it was -6%; on PRKCE it was -6%; at RPS6KA3 it was -7%; on STK38L, 5%.

By inhibition is commonly meant the relative decrease from the control value, in per cent.
